In patent US20140073634A1 (Institute For Applied Cancer Science/The University of …, priority 2012, published 2014):
pIC50: −log10 of the molar value.

The compounds below were run on 293T-HRE-GFP-luc cells (assay: Cell-based reporter assay for IC50 determinations (HRE-luciferase, hypoxia)). Details: 6 h, 6 hrs hypoxia (1% O2), luminescence.
In short: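 IC50s come from four-parameter logistic fits of luminescence. Compounds in 1:3 DMSO series were added to 293T-HRE-GFP-luc cells, 30 min normoxia preceding 6 hrs at 1% O2, 37° C; HRE-luciferase signal was then measured with Steadylite Plus reagent.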

| Compound | pIC50 |
| --- | --- |
| COCCOc1cccc(Cn2cc(-c3noc(-c4cnc(N5CCCCC5)nc4)n3)ccc2=O)c1 [Example 88, 1-(3-(2-Methoxyethoxy)benzyl)-5-(5-(2-(piperidin-1-yl)pyrimidin-5-yl)-1,2,4-oxadiazol-3-yl)pyridin-2(1H)-one] | > 7.00 |
| Cc1cnc(-c2nc(-c3ccc(C(C)(C)C)cc3)no2)nc1Cc1cccc(N2CCN(C)CC2)c1 [Example 89, 3-(4-(Tert-butyl)phenyl)-5-(5-methyl-4-(3-(4-methylpiperazin-1-yl)benzyl)pyrimidin-2-yl)-1,2,4-oxadiazole] | > 7.00 |
| Cc1ncc(-c2nc(-c3ccc(OC(F)(F)F)cc3)no2)nc1Cc1cccc(N2CCN(C)CC2)c1 [Example 90, 5-(5-Methyl-6-(3-(4-methylpiperazin-1-yl)benzyl)pyrazin-2-yl)-3-(4-(trifluoromethoxy)phenyl)-1,2,4-oxadiazole] | > 7.00 |
| CN1CCN(c2cc(Cn3cc(-c4ncc(-c5ccc(OC(F)(F)F)cc5)o4)ccc3=O)ccn2)CC1 [Example 92, 1-((2-(4-Methylpiperazin-1-yl)pyridin-4-yl)methyl)-5-(5-(4-(trifluoromethoxy)phenyl)oxazol-2-yl)pyridin-2(1H)-one] | 6.00 to 7.00 |
| COCCOc1cccc(Cn2cc(-c3nc(-c4ccc(OC(F)(F)F)cc4)co3)ccc2=O)c1 [Example 94, 1-(3-(2-Methoxyethoxy)benzyl)-5-(4-(4-(trifluoromethoxy)phenyl)oxazol-2-yl)pyridin-2(1H)-one] | > 7.00 |
| CS(=O)(=O)CCCOc1cccc(Cn2cc(-c3nc(-c4ccc(OC(F)(F)F)cc4)co3)ccc2=O)c1 [Example 95, 1-(3-(3-(Methylsulfonyl)propoxy)benzyl)-5-(4-(4-(trifluoromethoxy)phenyl)oxazol-2-yl)pyridin-2(1H)-one] | > 7.00 |
| CN1CCN(c2cccc(Cn3cc(-c4cc(-c5ccc(OC(F)(F)F)cc5)on4)ccc3=O)c2)CC1 [Example 96a, 1-(3-(4-Methylpiperazin-1-yl)benzyl)-5-(5-(4-(trifluoromethoxy)phenyl)isoxazol-3-yl)pyridin-2(1H)-one] | > 7.00 |
| CN1CCN(c2cccc(Cn3cc(-c4cc(-c5ccc(OC(F)(F)F)cc5)no4)ccc3=O)c2)CC1 [Example 96b, 1-(3-(4-methylpiperazin-1-yl)benzyl)-5-(3-(4-(trifluoromethoxy)phenyl)isoxazol-5-yl)pyridin-2(1H)-on] | > 7.00 |
| CN1CCN(c2cc(Cn3cc(-c4cc(-c5ccc(OC(F)(F)F)cc5)on4)ccc3=O)ccn2)CC1 [Example 97a, 1-((2-(4-Methylpiperazin-1-yl)pyridin-4-yl)methyl)-5-(5-(4-(trifluoromethoxy)phenyl)isoxazol-3-yl)pyridin-2(1H)-one] | > 7.00 |
| CN1CCN(c2cc(Cn3cc(-c4cc(-c5ccc(OC(F)(F)F)cc5)no4)ccc3=O)ccn2)CC1 [Example 97b, 1-((2-(4-methylpiperazin-1-yl)pyridin-4-yl)methyl)-5-(3-(4-(trifluoromethoxy)phenyl)isoxazol-5-yl)pyridin-2(1H)-one] | > 7.00 |
| CS(=O)(=O)C1CCN(c2cccc(Cn3cc(-c4cc(-c5ccc(OC(F)(F)F)cc5)no4)ccc3=O)c2)CC1 [Example 98, 1-(3-(4-(Methylsulfonyl)piperidin-1-yl)benzyl)-5-(3-(4-(trifluoromethoxy)phenyl)isoxazol-5-yl)pyridin-2(1H)-one] | > 7.00 |
| CS(=O)(=O)C1CCN(c2cccc(Cn3cc(-c4cc(-c5ccc(OC(F)(F)F)cc5)on4)ccc3=O)c2)CC1 [Example 99, 1-(3-(4-(Methylsulfonyl)piperidin-1-yl)benzyl)-5-(5-(4-(trifluoromethoxy)phenyl)isoxazol-3-yl)pyridin-2(1H)-one] | > 7.00 |
| CN1CCN(c2cccc(Cn3cc(-c4nnc(-c5ccc(OC(F)(F)F)cc5)o4)ccc3=O)c2)CC1 [Example 100, 1-Methyl-4-(3-((2-oxo-5-(5-(4-(trifluoromethoxy)phenyl)-1,3,4-oxadiazol-2-yl)pyridin-1(2H)-yl)methyl)phenyl)piperazin-1-ium 2,2,2-trifluoroacetate] | > 7.00 |
| CN1CCN(c2cc(Cn3cc(-c4nnc(-c5ccc(OC(F)(F)F)cc5)o4)ccc3=O)ccn2)CC1 [Example 101, 1-Methyl-4-(4-((2-oxo-5-(5-(4-(trifluoromethoxy)phenyl)-1,3,4-oxadiazol-2-yl)pyridin-1(2H)-yl)methyl)pyridin-2-yl)piperazin-1-ium 2,2,2-trifluoroacetate] | 6.00 to 7.00 |
| COCCOc1cccc(Cn2cc(-c3nnc(-c4ccc(OC(F)(F)F)cc4)o3)ccc2=O)c1 [Example 102] | > 7.00 |
| CC(C)(O)c1cccc(Cn2cc(-c3nnc(-c4ccc(OC(F)(F)F)cc4)o3)ccc2=O)c1 [Example 103] | > 7.00 |

| Compound | pIC50 |
| --- | --- |
| CS(=O)(=O)CCCOc1cccc(Cn2cc(-c3nnc(-c4ccc(OC(F)(F)F)cc4)o3)ccc2=O)c1 [Example 104] | > 7.00 |
| CS(=O)(=O)C1CCN(c2cccc(Cn3cc(-c4nnc(-c5ccc(OC(F)F)cc5)o4)ccc3=O)c2)CC1 [Example 105, 5-(5-(4-(Difluoromethoxy)phenyl)-1,3,4-oxadiazol-2-yl)-1-(3-(4-(methylsulfonyl)piperidin-1-yl)benzyl)pyridin-2(1H)-one] | > 7.00 |
| CC(C)Oc1ccc(-c2nnc(-c3ccc(=O)n(Cc4cccc(N5CCC(S(C)(=O)=O)CC5)c4)n3)o2)cc1 [Example 106, 6-(5-(4-Isopropoxyphenyl)-1,3,4-oxadiazol-2-yl)-2-(3-(4-(methylsulfonyl)piperidin-1-yl)benzyl)pyridazin-3(2H)-one] | > 7.00 |
| COC(=O)c1cccc(Cn2cc(-c3nc(-c4ccc(OC(F)(F)F)cc4)no3)ccc2=O)c1 [Example 107, methyl 3-((2-oxo-5-(3-(4-(trifluoromethoxy)phenyl)-1,2,4-oxadiazol-5-yl)pyridin-1(2H)-yl)methyl)benzoate] | 6.00 to 7.00 |
| O=c1ccc(-c2nc(-c3ccc(OC(F)(F)F)cc3)no2)nn1Cc1ccc(F)c(Br)c1 [Example 108, 2-(3-bromo-4-fluorobenzyl)-6-(3-(4-(trifluoromethoxy)phenyl)-1,2,4-oxadiazol-5-yl)pyridazin-3(2H)-one] | 6.00 to 7.00 |
| COC(=O)c1cccc(Cn2nc(-c3nc(-c4ccc(OC(F)(F)F)cc4)no3)ccc2=O)c1 [Example 109, methyl 3-((6-oxo-3-(3-(4-(trifluoromethoxy)phenyl)-1,2,4-oxadiazol-5-yl)pyridazin-1(6H)-yl)methyl)benzoate] | 6.00 to 7.00 |
| O=C(c1cccc(Cn2nc(-c3nc(-c4ccc(OC(F)(F)F)cc4)no3)ccc2=O)c1)N1CCOCC1 [Example 110, 2-(3-(morpholine-4-carbonyl)benzyl)-6-(3-(4-(trifluoromethoxy)phenyl)-1,2,4-oxadiazol-5-yl)pyridazin-3(2H)-one] | 6.00 to 7.00 |
| O=c1ccc(-c2nc(-c3ccc(OC(F)(F)F)cc3)no2)nn1Cc1ccc(F)c(N2CCOCC2)c1 [Example 111, 2-(4-fluoro-3-morpholinobenzyl)-6-(3-(4-(trifluoromethoxy)phenyl)-1,2,4-oxadiazol-5-yl)pyridazin-3(2H)-one] | > 7.00 |
| CN1CCN(C(=O)c2cccc(Cn3nc(-c4nc(-c5ccc(OC(F)(F)F)cc5)no4)ccc3=O)c2)CC1 [Example 112, 2-(3-(4-methylpiperazine-1-carbonyl)benzyl)-6-(3-(4-(trifluoromethoxy)phenyl)-1,2,4-oxadiazol-5-yl)pyridazin-3(2H)-one] | 6.00 to 7.00 |
| CN1CCN(c2cc(Cn3nc(-c4nc(-c5ccc(OC(F)(F)F)cc5)no4)ccc3=O)ccc2F)CC1 [Example 113, 2-(4-fluoro-3-(4-methylpiperazin-1-yl)benzyl)-6-(3-(4-(trifluoromethoxy)phenyl)-1,2,4-oxadiazol-5-yl)pyridazin-3(2H)-one] | > 7.00 |
| O=C(c1cccc(Cn2cc(-c3nc(-c4ccc(OC(F)(F)F)cc4)no3)ccc2=O)c1)N1CCOCC1 [Example 114, 1-(3-(morpholine-4-carbonyl)benzyl)-5-(3-(4-(trifluoromethoxy)phenyl)-1,2,4-oxadiazol-5-yl)pyridin-2(1H)-one] | > 7.00 |
| CN1CCN(C(=O)c2cccc(Cn3cc(-c4nc(-c5ccc(OC(F)(F)F)cc5)no4)ccc3=O)c2)CC1 [Example 115, 1-(3-(4-methylpiperazine-1-carbonyl)benzyl)-5-(3-(4-(trifluoromethoxy)phenyl)-1,2,4-oxadiazol-5-yl)pyridin-2(1H)-one] | > 7.00 |
| CN1CCN(c2cccc(Cn3cc(-c4nc(-c5ccc(OC(F)(F)F)cc5)no4)ccc3=O)c2)CC1 [Example 116, 1-(3-(4-methylpiperazin-1-yl)benzyl)-5-(3-(4-(trifluoromethoxy)phenyl)-1,2,4-oxadiazol-5-yl)pyridin-2(1H)-one] | > 7.00 |
| COC(=O)c1cc(Cn2nc(-c3nc(-c4ccc(OC(F)(F)F)cc4)no3)ccc2=O)ccn1 [Example 117, methyl 4-((6-oxo-3-(3-(4-(trifluoromethoxy)phenyl)-1,2,4-oxadiazol-5-yl)pyridazin-1(6H)-yl)methyl)picolinate] | 5.00 to 6.00 |
| CS(=O)(=O)c1cccc(Cn2nc(-c3nc(-c4ccc(OC(F)(F)F)cc4)no3)ccc2=O)c1 [Example 118, 2-(3-(methylsulfonyl)benzyl)-6-(3-(4-(trifluoromethoxy)phenyl)-1,2,4-oxadiazol-5-yl)pyridazin-3(2H)-one] | > 7.00 |
| NS(=O)(=O)c1cccc(Cn2nc(-c3nc(-c4ccc(OC(F)(F)F)cc4)no3)ccc2=O)c1 [Example 119] | > 7.00 |

Same assay, conditions: 6 hrs hypoxia (1% O2), luminescence

| Compound | pIC50 |
| --- | --- |
| CN1CCN(c2cccc(Cn3cc(-c4ncc(-c5ccc(OC(F)(F)F)cc5)o4)ccc3=O)c2)CC1 [Example 91, 1-(3-(4-Methylpiperazin-1-yl)benzyl)-5-(5-(4-(trifluoromethoxy)phenyl)oxazol-2-yl)pyridin-2(1H)-one] | > 7.00 |
| CN1CCN(c2cccc(Cn3cc(-c4nc(-c5ccc(OC(F)(F)F)cc5)co4)ccc3=O)c2)CC1 [Example 93, 1-(3-(4-Methylpiperazin-1-yl)benzyl)-5-(4-(4-(trifluoromethoxy)phenyl)oxazol-2-yl)pyridin-2(1H)-one] | > 7.00 |
